Source: US5858736A, “Preparation of lactams from aliphatic α,ω-dinitriles” (priority 1996, dated 1999)
Values after ≈ are worked out from the molar mass of the structure shown.

Columns and labels:
[1] = Solubility of dinitrile in the aqueous cell suspension; format: physicochemical; conditions: aqueous cell suspension of Acidovorax facilis 72W, two-phase above this concentration; read-out: concentration above which the solubility of the dinitrile was exceeded
Method: Into a 500 mL erlenmeyer flask equipped with magnetic stir bar was placed 50.0 g of frozen Acidovorax facilis 72W (ATCC 55746) cells (previously heat-treated at 50° C. for 1 h before freezing) and 450 mL of potassium phosphate buffer (20 mM, pH 7.0) at 27° C. With stirring, the cells were thawed and suspended, then centrifuged and the supernatant discarded. The cell pellet was resuspended in a total volume of 863 mL of potassium phosphate buffer (20 mM, pH 7.0) in a 1.0 L flask, then 133 g (137.0 mL, 1.25 mole) of 2-methyleneglutaronitrile was added with stirring at 27° C. […] Samples (0.100 mL) were withdrawn, diluted 1:10 with water and centrifuged, then 0.150 mL of the supernatant was placed in a Millipore Ultrafree-MC filter unit (0.22 micron) and mixed with 0.150 mL of an aqueous solution of 0.150M N-methylpropionamide (HPLC external standard solution). The resulting solution was filtered and analyzed by HPLC.

[2] = pKa of acid and protonated amine groups / ionization at reaction pH; format: physicochemical; conditions: calculated, reaction mixture pH of between 9 and 10
[3] = cited from earlier work
[4] = physchem; conditions: 20 mm phosphate buffer, pH 7, aqueous buffer
[5] = Lange's Handbook of Chemistry, 14th edn.

SMILES: C=C(C#N)CCC#N [2-methyleneglutaronitrile]
- solubility [1]: ≤ 400 mM

SMILES: N.NCCCCCC(=O)O [6-aminocaproic acid ammonium salt]
- fraction of amine groups protonated [2]: approximately half

SMILES: NCCCCCC(=O)O [6-aminocaproic acid]
- fraction existing in solution as the ammonium salt of the carboxylic acid [2]: at least 99.997%
- pKa of the carboxylic acid group [3, 5]: 4.373
- pKa of the protonated amine group [3, 5]: 10.804

SMILES: N#CCCCCC#N [adiponitrile]
- solubility [4]: ~600 mM (≈ 64.9 mg/mL)

SMILES: CN [methylamine]
- pKa for the protonated amine (methylamine) ([3]; in water): 10.62
